Data reported in ChEMBL document CHEMBL1144752, “Synthesis and antioxidant properties of novel N-methyl-1,3,4-thiadiazol-2-amine and 4-methyl-2H-1,2,4-triazole-3(4H)-thione derivatives of benzimidazole class” (Bioorg Med Chem, 2008).
Calls of active or inactive are those of the source. No cut-off for these calls is given here.

Assays:
[1] = tested on: Radical scavenging activity; experiment: Antioxidant activity assessed as DPPH free radical scavenging activity after 30 mins; format: functional
[2] = tested on: Liver microsomes; experiment: Antioxidant activity in albino Wistar rat liver microsomes assessed as inhibition of NADPH-dependent lipid peroxidation at 1000 uM; format: functional; conditions: Microsome
[3] = Antioxidant activity assessed as inhibition of superoxide radical anion formation at 0.1 mM; format: functional
[4] = tested on: Liver microsomes; experiment: Antioxidant activity in rat liver microsomes assessed as inhibition of ethoxyresorufin O-deethylase activity; format: functional, Microsome
[5] = tested on: Liver microsomes; experiment: Antioxidant activity in rat liver microsomes assessed as inhibition of ethoxyresorufin O-deethylase activity at 1000 uM; format: functional; conditions: Microsome

Row | SMILES | IC50 [1] | IC50 [4] | Activity [2] | Activity [3] | Activity [5] | inhibition [5] | inhibition [3] | inhibition [2]
1 | Cc1cc(C(C)(C)C)c(O)c(C(C)(C)C)c1 [BUTYLATED HYDROXYTOLUENE] | 54 µM | – | 5.68 nmol/mg/min | – | – | – | – | –
2 | COc1ccc(NC(=S)NNC(=O)Cn2c(-c3ccncc3)nc3ccccc32)cc1 | 12 µM | – | – | – | – | – | – | –
3 | Cn1c(Cn2c(-c3ccc(OCc4ccccc4)cc3)nc3ccccc32)n[nH]c1=S | 605 µM | – | 69.6 nmol/mg/min | – | 18 pmol/mg/min | – | 5% | –
4 | CNc1nnc(Cn2c(-c3ccc(OC)cc3)nc3ccccc32)s1 | > 1000 µM | – | 14.4 nmol/mg/min | – | 34.3 pmol/mg/min | – | 5% | 11%
5 | CNc1nnc(Cn2c(-c3ccc(OC)c(OC)c3)nc3cc(Cl)c(Cl)cc32)s1 | > 1000 µM | – | 11.8 nmol/mg/min | – | 12.2 pmol/mg/min | 66% | 31% | 28%
6 | CNc1nnc(Cn2c(-c3ccc(Cl)cc3)nc3ccccc32)s1 | – | – | 16.1 nmol/mg/min | – | 2.46 pmol/mg/min | – | 21% | –
7 | CNc1nnc(Cn2c(-c3ccc(O)cc3)nc3ccccc32)s1 | > 1000 µM | – | 129 nmol/mg/min | – | 36.1 pmol/mg/min | – | 5% | –
8 | CNC(=S)NNC(=O)Cn1c(-c2ccc(OC)cc2)nc2ccccc21 | 43 µM | – | 16.1 nmol/mg/min | inactive | 34.5 pmol/mg/min | – | – | –
9 | Cn1c(=O)c2c(ncn2C)n(C)c1=O [CAFFEINE] | – | 520 µM | – | – | 8.31 pmol/mg/min | 80% | – | –
10 | O=C(Cn1c(-c2ccncc2)nc2ccccc21)NNC(=S)Nc1ccccc1 | 13 µM | – | – | – | – | – | – | –

More lines, in order of falling IC50 [1], values ahead:

Row | IC50 [1] | IC50 [4] | SMILES | Activity [2] | Activity [3] | Activity [5] | inhibition [5] | inhibition [3] | inhibition [2]
11 | 462 µM | 450 µM | Cn1c(Cn2c(-c3ccc(Cl)cc3)nc3ccccc32)n[nH]c1=S | 26.6 nmol/mg/min | inactive | 7.89 pmol/mg/min | 81% | – | –
12 | 271 µM | – | COc1ccc(-c2nc3cc(Cl)c(Cl)cc3n2Cc2n[nH]c(=S)n2C)cc1OC | 27.5 nmol/mg/min | inactive | 18.3 pmol/mg/min | – | – | –
13 | 140 µM | – | COc1ccc(-c2nc3ccccc3n2Cc2n[nH]c(=S)n2C)cc1 | 23.1 nmol/mg/min | – | 15.8 pmol/mg/min | – | 5% | –
14 | 74 µM | – | CNC(=S)NNC(=O)Cn1c(-c2ccc(OCc3ccccc3)cc2)nc2ccccc21 | 96.6 nmol/mg/min | – | 28.6 pmol/mg/min | – | 5% | –
15 | 55 µM | 840 µM | CNC(=S)NNC(=O)Cn1c(-c2ccc(OC)c(OC)c2)nc2cc(Cl)c(Cl)cc21 | 14.8 nmol/mg/min | – | 12.3 pmol/mg/min | 70% | 26% | –
16 | 30 µM | – | CNC(=S)NNC(=O)Cn1c(-c2ccc(Cl)cc2)nc2ccccc21 | 13.1 nmol/mg/min | – | 28.3 pmol/mg/min | – | 38% | 20%
17 | 26 µM | – | CNC(=S)NNC(=O)Cn1c(-c2ccccc2)nc2ccccc21 | 19.2 nmol/mg/min | – | 51 pmol/mg/min | – | 22% | –
